From patent US6900202B2, “Di-substituted imineheterocyclic compounds” (priority 2000, dated 2005)

Tests used:
[1] = target: T1, α1β1γδ subtype of nicotinic acetylcholine receptors (Rattus norvegicus, UniProt P18916+P25108+P25109+P25110); test: biochemical; assay type: binding
T1 construct: The centrifugation at 100,000×G for 60 minutes at 4° C. yielded the rat muscle extract as supernatant
Description: (§1) The methods for evaluating the binding capabilities of the compounds against nicotinic acetylcholine receptors are different by subtypes of receptors. The binding capabilities of the compounds at α4β2 nicotinic acetylcholine receptors are examined using rat brain membrane obtained from whole homogenized brain, and determining the inhibiting rate of the compounds against [^3H]-cytisine binding to said brain membrane. Furthermore, the binding capabilities of the compounds at α1β1γδ nicotinic acetylcholine receptors are examined using homogenized rat muscle, and determining the inhibiting rate of the compounds against [^3H]-α-bungarotoxin binding to said muscle membrane.
(§2) Binding Assays at α1β1γδ Subtype of Nicotinic Acetylcholine Receptors
(§3) The affinity of the compounds of the present invention to α1β1γδ subtype of nicotinic acetylcholine receptors was measured by the following method, which was modified method described by Garcha H. S., Thomas P., Spivak C.
(§4) (1) Preparation of Rat Skeletal Muscles Containing α1β1γδ Subtype of Nicotinic Acetylcholine Receptors
(§5) The substantially same animals described in the Biological Experiment 1 were used.
(§6) The isolation of α1β1γδ subtype of nicotinic acetylcholine receptors was performed as follow. That is, rat posterior skeletal muscles were isolated just after sacrificed by decapitation, washed with ice-cooled saline solution and then frozen at −80° C. with liquid nitrogen and stored till using. After thawing the frozen muscles, tissue was homogenized (40% w/v) with buffer solution [2.5 mM of sodium phosphate buffer (pH:7.2), 90 mM of NaCl, 2 mM of KCl, 1 mM of EDTA, 2 mM of benzamidine, 0.1 mM of benzethonium chloride, 0.1 mM of PMSF, 0.01% of sodium azide] in Waring blender [Waring blender 34BL97; WARING PRODUCTS DIVISION DYNAMICS CORPORATION OF AMERICA) for 60 seconds. The homogenate were centrifuged under 20,000×G for 60 minutes at 4° C. The supernatant was separated and the resulting pellet was added to the same buffer (1.5 ml/g wet weight), and homogenized under the same conditions. Triton X100 (2% w/v) was added and the mixture was stirred for 3 hours at 4° C. The centrifugation at 100,000×G for 60 minutes at 4° C. yielded the rat muscle extract as supernatant. This was stored at 4° C. for up to 4 weeks, and used for binding assays at receptors.
(§7) (2) Experiments of α1β1γδ Subtype of Nicotinic Acetylcholine Receptors Binding
(§8) Receptors binding experiments were performed as follow. That is, the extract of rat muscle containing 600-900 μg of protein was added to test tubes containing test compounds and incubated for 15 minutes at 37° C. Then, to this mixture was added 1 nM of [^3H]-α-bungarotoxin (α-Bgt) and further incubated for 2 hours. The samples were isolated by vacuum filtration onto Whatman GF/B filters, which were prerinsed with 0.5% polyethylenimine just prior to sample filtration, using Brandel multi manifold cell harvester. The filters were rapidly rinsed with washing solution (10 mM of KH2PO4, 150 mM of NaCl, pH 7.2, room temperature) (5×1 ml). The filters were counted in 3 ml of clearsol I (Nacalai Tesque Inc.). The determination of nonspecific binding was incubated in the presence of 1 μM α-Bgt. […] In the receptor binding experiments, said buffer solution was added for adjusting the final concentration of BSA to be 0.05%.
(§9) The analyses of the experimental results were conducted by as described in the Biological Experiment 1.

[2] = target: T2, α1β1γδ subtype of nicotinic acetylcholine receptors (Rattus norvegicus, UniProt P25108); test: biochemical; assay type: binding; settings: % of control binding remaining
T2 construct: The centrifugation at 100,000×G for 60 minutes at 4° C. yielded the rat muscle extract as supernatant
T2 sequence (P25108 21-457): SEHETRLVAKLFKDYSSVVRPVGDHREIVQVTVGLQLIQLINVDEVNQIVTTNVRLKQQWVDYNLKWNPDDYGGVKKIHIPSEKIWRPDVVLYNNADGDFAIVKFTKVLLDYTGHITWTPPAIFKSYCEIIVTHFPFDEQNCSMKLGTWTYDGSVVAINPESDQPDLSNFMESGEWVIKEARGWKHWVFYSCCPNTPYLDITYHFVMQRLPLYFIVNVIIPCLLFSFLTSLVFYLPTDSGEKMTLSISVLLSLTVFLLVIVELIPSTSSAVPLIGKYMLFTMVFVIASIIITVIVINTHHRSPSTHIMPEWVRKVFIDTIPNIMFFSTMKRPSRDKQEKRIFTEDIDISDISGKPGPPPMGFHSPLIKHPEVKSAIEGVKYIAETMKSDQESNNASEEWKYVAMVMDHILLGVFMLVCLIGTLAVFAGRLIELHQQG
T2 sequence (P25109 24-501, further chain): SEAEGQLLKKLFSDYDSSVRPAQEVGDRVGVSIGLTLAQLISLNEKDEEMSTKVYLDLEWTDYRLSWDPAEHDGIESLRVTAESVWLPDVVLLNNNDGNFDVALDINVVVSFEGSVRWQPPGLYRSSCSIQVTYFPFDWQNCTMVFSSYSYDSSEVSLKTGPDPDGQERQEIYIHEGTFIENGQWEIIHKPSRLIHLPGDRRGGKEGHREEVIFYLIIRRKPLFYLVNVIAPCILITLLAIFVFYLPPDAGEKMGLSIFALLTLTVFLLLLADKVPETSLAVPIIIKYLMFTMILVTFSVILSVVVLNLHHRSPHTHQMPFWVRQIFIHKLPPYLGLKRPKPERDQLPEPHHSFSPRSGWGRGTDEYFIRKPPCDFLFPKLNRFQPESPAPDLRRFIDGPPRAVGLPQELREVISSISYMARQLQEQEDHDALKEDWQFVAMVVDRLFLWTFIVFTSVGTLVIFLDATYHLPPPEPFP
T2 sequence (P25110 22-517, further chain): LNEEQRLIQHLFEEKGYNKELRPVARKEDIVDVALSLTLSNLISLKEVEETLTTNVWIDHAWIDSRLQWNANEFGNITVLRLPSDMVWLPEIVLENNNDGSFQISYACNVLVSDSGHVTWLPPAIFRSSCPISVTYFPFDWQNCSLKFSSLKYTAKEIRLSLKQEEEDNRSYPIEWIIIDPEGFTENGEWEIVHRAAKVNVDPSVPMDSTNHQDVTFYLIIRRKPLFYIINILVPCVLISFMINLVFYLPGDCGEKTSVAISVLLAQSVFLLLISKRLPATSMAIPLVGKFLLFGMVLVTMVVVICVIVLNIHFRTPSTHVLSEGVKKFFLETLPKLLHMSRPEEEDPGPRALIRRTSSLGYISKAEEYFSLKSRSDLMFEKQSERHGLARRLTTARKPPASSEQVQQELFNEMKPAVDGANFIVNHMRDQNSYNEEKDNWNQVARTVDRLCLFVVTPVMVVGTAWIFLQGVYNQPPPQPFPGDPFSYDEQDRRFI
Description: as §1, §2, §3, §4, §5, §6, §7, §8, §9

T1 sequence (P25108 21-457): as the sequence (P25108 21-457) above
T1 sequence (P25109 24-501): as the sequence (P25109 24-501, further chain) above
T1 sequence (P25110 22-517): as the sequence (P25110 22-517, further chain) above

Row | Structure (SMILES) | Ki [1] [µM] | control % of [3H]-α-Bgt binding at 100 μM of test compound ([2]; 100 μM test compound) [%] | control % of [3H]-α-Bgt binding at 1,000 μM of test compound ([2]; 1,000 μM test compound) [%]
1 | Clc1ccc(C/N=C2\SCCN2Cc2ccc(Cl)nc2)cn1 [Compound 1, 3-(6-chloro-3-pyridyl)methyl-2-[(6-chloro-3-pyridyl)methyl]iminothiazolidine] | 420 |  | 
2 | Clc1ccc(C/N=C2\OCCCN2Cc2ccc(Cl)nc2)cn1 [Compound 2, 3-(6-chloro-3-pyridyl)methyl-2-[(6-chloro-3-pyridyl)-methyl]imino-3,4,5,6-tetrahydro-2H-1,3-oxazine] |  | 95 | 56
3 | Clc1ccc(C/N=c2\sccn2Cc2ccc(Cl)nc2)cn1 [Compound 8, 3-(6-chloro-3-pyridyl)methyl-2-[(6-chloro-3-pyridyl)methyl]imino-2,3-dihydrothiazole] | 840 |  | 
4 | Cn1ccn(Cc2ccc(Cl)nc2)c1=N [Compound 13, 1-(6-chloro-3-pyridyl)methyl-2-imino-3-methyl-2,3-dihydroimidazole] | 320 |  | 
